In patent US9321742B2, “N1-cyclic amine-N5-substituted biguanide derivatives, methods of preparing the same and pharmaceutical composition comprising the same” (IMMUNOMET THERAPEUTICS INC., priority 2011, dated 2016):

What was measured:
AMPKα = experiment: Measurement of AMPK-activation effect (AMPKα Thr172 phosphorylation immunoassay in MCF7 cells); assay type: cell-based, human; conditions: 24 hours; for AMPK activation effect 10 uM (%) / AMPK activation effect 50 uM (%): relative to untreated cells
Protocol: MCF7 cells derived from human breast cancer cells (commercially available from the Korean Cell Line Bank) were used, and the AMPK (5′-AMP-activated protein kinase alpha)-activation effect of the biguanide derivative was confirmed using an AMPKα immunoassay kit (Invitrogen, Catalog No. KH00651).
MCF7 cells were cultured in a DMEM medium supplemented with 10% fetal bovine serum. Thereafter, the cultured MCF7 cells were put into a 6-well plate with approximately 5×10^5 cells per well and cultured in an incubator supplied with 5% CO2. Culture media were treated with the derivatives synthesized in the examples at contents of 5, 10 and 50 μM, and then cultured for 24 hours. Metformin hydrochloride was used as the control, and the culture media were treated with 0.05, 0.5, 1, 2, 5 and 10 mM metformin hydrochloride, and then tested in the same manner as described in the derivatives synthesized in the examples. Subsequently, the cells were lysed according to a method presented in the operation manual of the AMPKα immunoassay kit, and 20 μg of a cell lysate was then yielded through protein assay. Thereafter, the AMPK activation effect was obtained by determining the degree of phosphorylation of 172nd threonine residue (Thr172) of the AMPKα from the cell lysate according to the method presented in the operation manual of the AMPKα immunoassay kit. […] A curve graph showing AMPK activation according to the concentration of the treated compounds was plotted based on the obtained AMPKα activation results, the concentration (activation concentration 150, AC150) value of the compound whose AMPK activation reached 150% was calculated using a GraphPad Prism 5.0 program, and the degrees of AMPK activation were obtained when concentrations of the treated biguanide derivatives were 10 μM and 50 μM and the metformin hydrochloride was 50 μM.

HCT116 cells = experiment: Measurement of effect of inhibiting cancer cell proliferation (MTT); assay type: cell-based; conditions: Homo sapiens; for inhibition at 100 µM: HCT-116, 100 uM, 48 hours, read-out: Cell Growth Inhibition (%) at 100 uM; for GI50: HCT-116, 48 hours
From the text: HCT116 cells derived from human colorectal cancer (commercially available from the Korean Cell Line Bank) were used, and the effect of inhibiting cancer cell proliferation of the biguanide derivative was confirmed by measuring the concentration value (cell growth inhibition concentration, GIC50) at which cell growth was inhibited by 50% using a 3-(4,5-dimethylthiazol-2-yl)-2,5-[…] bromide (MTT) reagent.
First, HCT116 cells were put on a 96-well plate and cultured in a DMEM medium containing 10% fetal bovine serum for 16 hours so that the cellcount in each well was approximately 5,000. Subsequently, to obtain the GIC50 value of each compound, culture media were treated with 100 μM, 25 μM, 6.25 μM, 1.56 μM or 0.39 μM of the compound, and then cultured for 48 hours. At this time, some of the compounds were treated with 200 μM instead of 100 μM. Metformin hydrochloride was used as the control, and the culture media were treated with 25, 12.5, 2.5, 0.5, 0.1 mM metformin hydrochloride, and then tested in the same manner as described in the derivatives synthesized in the examples. In order to determine whether the cells survived after treatment with the compound, MTT was added to the culture media which were then cultured for another 3 hours. Formed formazane crystals were dissolved using dimethyl sulfoxide (DMSO), and the absorbance of the resulting solution was measured at 560 nm. After the 48-hours culture, the ratio of the cell count cultured on a well plate not treated with the compound to the living cell count on a well plate treated with the compounds synthesized in the examples was indicated as cell viability (%) according to each treated concentration. A cell viability curve graph was plotted and the concentration (GIC50) value of the compound at which the growth was inhibited by 50% was calculated to confirm the effect of inhibition of cancer cell proliferation. Also, the cell growth viability (%) when the concentration of the treated biguanide derivative and the metformin hydrochloride as the control were 100 uM was shown.

| Compound | melting point | GI50 (HCT116 cells) | AMPK activation effect 10 uM (%) (AMPKα) | AMPK activation effect 50 uM (%) (AMPKα) | AC150 (concentration at which AMPK activation reached 150%) (AMPKα) | inhibition at 100 µM (HCT116 cells) |
| --- | --- | --- | --- | --- | --- | --- |
| Cl.N=C(NCc1ccc(C(F)(F)F)cc1)NC(=N)N1CCCC1 [Example 38, N1-pyrrolidine-N5-(4-trifluoromethyl)benzyl biguanide hydrochloride] | 268 to 270 °C | 32.4 µM | 116% | 213% | 1.4 µM | 61.6% |
| Cl.N=C(NCc1cccc(C(F)(F)F)c1)NC(=N)N1CCOCC1 [Example 36, N1-morpholine-N5-(3-trifluoromethyl)benzyl biguanide hydrochloride] | 211 to 212 °C | > 100 µM | 516% | 656% | >50 µM | 97.2% |
| Cl.N=C(NCc1ccco1)NC(=N)N1CCCCC1 [Example 23, N1-piperidine-N5-(furan-2-ylmethyl)biguanide hydrochloride] | 251 to 252 °C | > 100 µM | 112% | 298% | 15.8 µM | 39.5% |
| Cc1ccc(CNC(=N)NC(=N)N2CCCCC2)cc1.Cl [Example 27, N1-piperidine-N5-(4-methyl)benzyl biguanide hydrochloride] | 241 to 243 °C | 70.5 µM | 435% | 947% | 2.3 µM | 64.9% |
| Cl.N=C(NCc1cccnc1)NC(=N)N1CCCC1 [Example 20, N1-pyrrolidine-N5-(pyridine-3-ylmethyl)biguanide hydrochloride] | 201 to 203 °C | > 100 µM | 71% | 89% | >50 µM | 9.2% |
| Cl.N=C(NC(=N)N1CCCCC1)NC1CCCC1 [Example 14, N1-piperidine-N5-cyclopentyl biguanide hydrochloride] | 154 to 155 °C | > 100 µM | 114% | 157% | 38.3 µM | 30.4% |
| Cl.N=C(NCc1ccc(F)cc1)NC(=N)N1CCCCC1 [Example 30, N1-piperidine-N5-(4-fluoro)benzyl biguanide hydrochloride] | 250 to 251 °C | > 100 µM | 143% | 278% | 13.1 µM | 47% |
| CNC(=N)NC(=N)N1CCCCC1.Cl [Example 8, N1-piperidine-N5-methyl biguanide hydrochloride] | 211 to 212 °C | 88.6 µM | 139% | 500% | 9.0 µM | 50.5% |

These reach a lower GI50 (HCT116 cells). Values come first.

| melting point | GI50 (HCT116 cells) | Compound | AMPK activation effect 10 uM (%) (AMPKα) | AMPK activation effect 50 uM (%) (AMPKα) | AC150 (concentration at which AMPK activation reached 150%) (AMPKα) | inhibition at 100 µM (HCT116 cells) |
| --- | --- | --- | --- | --- | --- | --- |
| 219 to 221 °C | 21.1 µM | Cl.N=C(NCc1ccc(Cl)c(Cl)c1)NC(=N)N1CCCC1 [Example 54, N1-pyrrolidine-N5-(3,4-dichloro)benzyl biguanide hydrochloride] | 315% |  | 0.8 µM | 98% |
| 242 to 243 °C | 25.6 µM | Cl.N=C(NCc1ccc(OC(F)(F)F)cc1)NC(=N)N1CCCC1 [Example 41, N1-pyrrolidine-N5-(4-trifluoromethoxy)benzyl biguanide hydrochloride] | 242% | 698% | 0.9 µM | 97.4% |
| 211 to 213 °C | 21.9 µM | Cl.N=C(NCCc1ccccc1)NC(=N)N1CCCCCC1 [Example 59, N1-azepane-N5-(phenethyl)biguanide hydrochloride] | 194% | 373% | 0.7 µM | 56.6% |
